Assays:
Assay in all cases: relative viability (nuclei count vs DMSO), 5 days (fraction); higher = more cells survive
Crenolanib = compound: CC1(COc2ccc3c(c2)ncn3-c2ccc3cccc(N4CCC(N)CC4)c3n2)COC1 [Crenolanib]
How it was run: (§1)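 Viability was defined as treated-well nuclei divided by vehicle-well nuclei, with the median taken over replicate plates. Cells from lung cancer lines sat overnight at 37 °C in 1536-well plates, received five √10-spaced library-drug doses by pinning on vehicle-anchored plates, and grew 5 days without medium change before one-step fixation, permeabilisation and Hoechst staining, 4× imaging and MetaXpress nuclear counts. Only plates with control CV under 25% and at least one doubling were kept.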

Tivantinib = compound: O=C1NC(=O)[C@@H](c2cn3c4c(cccc24)CCC3)[C@@H]1c1c[nH]c2ccccc12 [Tivantinib]
How it was run: as §1

Tivantinib + Bortezomib = compound: O=C1NC(=O)[C@@H](c2cn3c4c(cccc24)CCC3)[C@@H]1c1c[nH]c2ccccc12 [Tivantinib] + CC(C)C[C@H](NC(=O)[C@H](Cc1ccccc1)NC(=O)c1cnccn1)B(O)O [Bortezomib] (partner 0.002 µM)
How it was run: (§2)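 Dosing by pin tool came one day after lung cancer cell lines were seeded in 1536-well plates, using either one drug or a fixed anchor-drug dose plus five library-drug doses (not always all listed) in √10 steps. After 5 days, nuclei were counted on 4× images. Relative viability is treated-well nuclei count divided by vehicle-well nuclei count, and values are medians of duplicate plates.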

Crenolanib + Alpelisib = compound: CC1(COc2ccc3c(c2)ncn3-c2ccc3cccc(N4CCC(N)CC4)c3n2)COC1 [Crenolanib] + Cc1nc(NC(=O)N2CCC[C@H]2C(N)=O)sc1-c1ccnc(C(C)(C)C(F)(F)F)c1 [Alpelisib] (partner 2 µM)
How it was run: as §2

Cell Line	relative viability (Crenolanib; 0.01 µM)	relative viability (Crenolanib; 0.03162 µM)	relative viability (Crenolanib; 0.1 µM)	relative viability (Crenolanib; 0.3162 µM)	relative viability (Crenolanib; 1 µM)	relative viability (Tivantinib; 0.01 µM)	relative viability (Tivantinib; 0.03162 µM)	relative viability (Tivantinib; 0.1 µM)	relative viability (Tivantinib; 0.3162 µM)	relative viability (Tivantinib + Bortezomib; first compound 0.01 µM)	relative viability (Tivantinib + Bortezomib; first compound 0.03162 µM)	relative viability (Tivantinib + Bortezomib; first compound 0.1 µM)	relative viability (Tivantinib + Bortezomib; first compound 0.3162 µM)	relative viability (Crenolanib + Alpelisib; first compound 0.01 µM)	relative viability (Crenolanib + Alpelisib; first compound 0.03162 µM)	relative viability (Crenolanib + Alpelisib; first compound 0.1 µM)	relative viability (Crenolanib + Alpelisib; first compound 0.3162 µM)	relative viability (Crenolanib + Alpelisib; first compound 1 µM)
Calu-6	1.1	0.992	0.978	1.08	0.959	0.989	1.03	0.977	0.989	1.08	1.07	0.969	0.738	1.01	0.92	1	1.17	1.12
EBC-1	1.06	0.961	0.989	1.03	1.03	1.05	0.859	0.933	0.994	0.611	0.596	0.557	0.465	0.89	0.78	0.868	0.798	0.845
A-427	0.953	0.969	0.976	0.948	0.927	0.959	0.978	0.976	1.02	0.997	1	0.854	1.06	1.06	1.1	1.02	1.12	0.977
NCI-H2405	0.999	0.885	0.81	1	0.871	1.07	1.01	0.983	1.03	0.582	0.982	0.848	0.976	1	0.76	0.496	0.68	0.691
NCI-H1437	0.983	1	0.977	1.04	1.02	0.993	0.984	0.908	0.989	0.503	0.344	0.425	0.434	0.999	1.07	0.944	1.18	0.949
RERF-LC-KJ	1.04	1.01	1	1.06	1.02	1.01	1.03	0.996	0.763	1.18	1.22	1.19	0.963	0.839	0.761	0.802	1.03	0.73
NCI-H23	1.03	0.929	0.911	1	0.766	0.975	0.762	0.982	1	1.13	1.11	0.996	0.965	0.845	0.797	0.604	0.778	0.741
IA-LM	1.1	0.888	0.852	1.07	1.1	0.956	0.897	0.864	0.978	0.855	0.942	0.743	0.848	0.786	0.819	0.75	0.898	0.854
HCC-15	1.01	0.991	0.93	1.08	0.803	0.988	0.91	0.977	1.08	0.949	0.995	0.943	1.04	0.873	0.829	0.888	0.814	0.836
PC-14	1.13	0.92	0.997	1.02	0.821	0.946	0.985	0.99	0.773	0.873	0.917	0.777	0.822	1.01	0.969	0.858	1.04	0.894
NCI-H1792	1.15	0.777	0.82	0.858	0.784	0.849	0.842	0.935	1.08	0.943	0.968	0.927	0.813	0.707	0.741	0.697	0.705	0.666
HCC-827	1.08	1.02	1.03	1.04	0.958	1.06	1.07	1.04	0.765	1.02	1.12	1.03	1.11	1.04	1.01	0.916	1.03	0.992
LC-2-ad	1.01	0.982	0.94	0.976	0.866	0.977	0.933	0.934	1.01	1.18	0.853	0.976	1.08	0.945	0.886	0.815	1.03	0.89
NCI-H441	1.08	1.11	0.987	1.13	0.928	0.902	1.22	0.9	0.939	0.525	0.651	–	0.449	0.708	–	0.888	0.732	0.792
NCI-H322M	0.936	0.911	0.953	0.811	0.912	0.958	0.865	0.928	–	1.17	1.15	1.22	1.06	0.807	0.909	0.829	0.913	0.841
EPLC-272H	0.905	0.893	0.838	1.04	1.11	1.05	0.88	0.851	0.455	1.16	0.813	0.741	0.608	–	0.879	0.821	1.03	0.938
COR-L23	1.04	1.02	0.952	1.04	0.915	1.06	0.933	0.942	1.11	0.977	0.93	0.942	0.996	0.854	0.78	0.602	0.966	0.731
NCI-H2126	1.03	1.05	0.937	0.987	0.928	0.959	0.945	0.989	0.869	1.09	1.11	1.09	1.06	0.8	0.752	0.761	0.787	0.715

Cell Line	relative viability (Crenolanib; 0.01 µM)	relative viability (Crenolanib; 0.03162 µM)	relative viability (Crenolanib; 0.1 µM)	relative viability (Crenolanib; 0.3162 µM)	relative viability (Crenolanib; 1 µM)	relative viability (Tivantinib; 0.01 µM)	relative viability (Tivantinib; 0.03162 µM)	relative viability (Tivantinib; 0.1 µM)	relative viability (Tivantinib; 0.3162 µM)	relative viability (Tivantinib + Bortezomib; first compound 0.01 µM)	relative viability (Tivantinib + Bortezomib; first compound 0.03162 µM)	relative viability (Tivantinib + Bortezomib; first compound 0.1 µM)	relative viability (Tivantinib + Bortezomib; first compound 0.3162 µM)	relative viability (Crenolanib + Alpelisib; first compound 0.01 µM)	relative viability (Crenolanib + Alpelisib; first compound 0.03162 µM)	relative viability (Crenolanib + Alpelisib; first compound 0.1 µM)	relative viability (Crenolanib + Alpelisib; first compound 0.3162 µM)	relative viability (Crenolanib + Alpelisib; first compound 1 µM)
LCLC-103H	1.01	1.01	0.892	0.983	0.92	0.895	0.842	0.963	0.951	0.909	0.895	0.966	1.03	0.852	0.859	0.888	0.886	0.942
NCI-H1975	1.1	0.977	0.907	0.887	0.838	1.02	0.956	0.837	0.825	0.411	0.366	0.442	0.405	0.602	0.663	0.605	0.642	0.61
NCI-H2085	1	1.01	0.948	0.997	0.978	1.03	0.981	0.974	0.905	0.994	0.972	1.02	1.06	1.11	0.918	0.948	1.06	1.05
COR-L 105	1.03	0.953	0.852	0.963	0.915	0.912	0.734	0.892	0.537	0.754	0.398	0.671	0.354	1.02	1.25	0.811	1.03	1.02
SK-LU-1	1.03	1.04	0.755	1.08	1.04	1.08	1.08	0.987	1.01	1.07	0.954	1.32	1.05	1.04	0.931	0.703	1.27	0.87
NCI-H1299	1.01	0.995	0.982	1.02	0.997	0.998	0.986	0.998	1.03	1	1	1.04	1.03	1.04	1.06	0.982	1.06	1.05
PC-3 [JPC-3]	1.08	1.01	0.93	1.06	0.977	1.04	1.13	1.08	0.697	0.839	0.899	0.863	0.667	1.07	0.982	0.981	1.02	1.04
NCI-H661	0.962	1	1.02	1.04	1.01	1.07	0.971	0.956	0.811	0.897	0.782	0.9	–	0.894	0.609	0.479	0.597	0.542
NCI-H1703	0.948	0.759	0.534	0.313	0.21	1.22	0.923	0.895	0.795	0.36	0.362	0.29	0.31	0.33	0.378	0.242	0.174	0.151
NCI-H2087	0.938	1.04	0.88	1.05	0.967	1.11	0.936	0.95	1.06	0.759	0.639	0.664	0.893	0.86	1.11	0.942	1.02	1.17
NCI-H1755	0.965	1.03	0.989	1.03	0.959	1.05	0.991	0.956	1.09	0.974	0.94	0.934	1.01	0.958	0.953	0.915	1.05	0.898
NCI-H2228	0.944	1	0.871	1.11	1.1	1.03	0.893	0.931	0.815	0.886	0.908	1.13	0.932	0.842	0.863	0.712	0.867	0.748
EMC-BAC-2	1.08	–	0.994	1.13	0.84	1.01	0.962	0.997	0.998	1.05	0.989	1.04	0.969	0.747	0.758	0.68	0.881	0.771
NCI-H2009	1.05	1.02	0.991	0.991	0.89	0.985	0.954	0.967	1.07	1.01	0.646	1.01	1.1	1.12	1.19	1.06	1.18	1.07
NCI-H596	0.912	1.04	0.948	0.946	0.972	1.08	0.826	0.92	1.01	1.19	1.09	1.78	0.936	0.435	0.531	0.494	0.478	0.536
NCI-H650	0.999	0.798	0.963	0.868	0.887	0.98	0.671	0.896	0.943	0.723	–	0.772	0.874	1.14	1.13	0.972	1.06	1.07
NCI-H1915	0.969	1	1.02	1.01	0.779	0.986	0.912	0.977	1.06	0.982	0.961	0.946	0.975	1.04	1.07	1.04	1.07	0.874
SW 1573	1.01	1.01	0.955	1.01	0.986	1.02	0.866	0.981	0.958	1.16	1.17	1.1	1.29	0.824	0.765	0.706	0.954	0.608
